Source: patent US20250346585A1 (Alexion Pharmaceuticals, Inc., priority 2022, published 2025)

Target: Human complement C1s enzyme (Homo sapiens (Human), UniProt P09871)
Test: Human C1s enzyme assay
Assay type: biochemical
Conditions: Human complement C1s enzyme 1.16 nM, substrate Z-L-Lys-SBzl 100 μM, assay of Example 3; read-out: IC50 (Stars)
In short: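 IC50 derived by nonlinear regression of rate versus concentration, with rate taken from A405 kinetics (30 s intervals, 30 min) after adding 100 μM each Z-L-Lys-SBzl and DTNB. C1s from human serum, 1.16 nM, exposed to compound for 5 min at RT beforehand; buffer 50 mM Tris, 1 M NaCl, pH 7.5.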

Sequence of Human complement C1s enzyme (P09871 438-688 limits assumed): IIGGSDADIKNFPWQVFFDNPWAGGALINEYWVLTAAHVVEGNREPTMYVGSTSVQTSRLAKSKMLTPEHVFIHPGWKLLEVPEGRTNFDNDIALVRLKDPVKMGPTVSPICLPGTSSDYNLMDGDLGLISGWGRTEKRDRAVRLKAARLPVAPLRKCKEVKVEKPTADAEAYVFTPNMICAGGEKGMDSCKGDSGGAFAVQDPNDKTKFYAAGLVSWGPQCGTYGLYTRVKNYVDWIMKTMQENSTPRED
Sequence of Human complement C1s enzyme (P09871 16-437 partner limits assumed): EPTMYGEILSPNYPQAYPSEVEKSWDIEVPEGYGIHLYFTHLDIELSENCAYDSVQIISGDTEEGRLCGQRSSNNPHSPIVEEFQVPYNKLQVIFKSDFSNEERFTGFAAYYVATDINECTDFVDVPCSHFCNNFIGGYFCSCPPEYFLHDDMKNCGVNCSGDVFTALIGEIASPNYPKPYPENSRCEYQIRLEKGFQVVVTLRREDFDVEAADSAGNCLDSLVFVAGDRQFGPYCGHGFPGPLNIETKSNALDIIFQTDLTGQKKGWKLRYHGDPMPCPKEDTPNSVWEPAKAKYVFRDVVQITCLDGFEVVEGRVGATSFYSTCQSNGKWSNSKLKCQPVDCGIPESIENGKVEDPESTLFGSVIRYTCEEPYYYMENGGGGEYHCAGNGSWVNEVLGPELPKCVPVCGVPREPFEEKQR

| SMILES | IC50 [nM] |
| --- | --- |
| COC[C@@]1(F)C[C@@H](C(=O)N[C@H](C)c2cc(C(=N)N)cs2)N(C(=O)CNC(=O)c2ccc3c(c2)oc2ccccc23)C1 [Compound 360, (2S,4R)—N—((R)-1-(4-carbamimidoylthiophen-2-yl)ethyl)-1-((dibenzo[b,d]furan-3-carbonyl)glycyl)-4-fluoro-4-(methoxymethyl)pyrrolidine-2-carboxamide] | < 100 |
| C[C@@H](NC(=O)[C@@H]1C[C@@H](OC(F)F)CN1C(=O)CNC(=O)c1ccc2c(c1)oc1ccccc12)c1cc(C(=N)N)cs1 [Compound 361, (2S,4R)—N—((R)-1-(4-carbamimidoylthiophen-2-yl)ethyl)-1-((dibenzo[b,d]furan-3-carbonyl)glycyl)-4-(difluoromethoxy)pyrrolidine-2-carboxamide] | < 100 |
| C[C@@H](NC(=O)[C@@H]1C[C@@H](OC(F)F)CN1C(=O)CNC(=O)c1ccc2c(c1)S(=O)(=O)c1ccccc1-2)c1cc(C(=N)N)cs1 [Compound 362, (2S,4R)—N—((R)-1-(4-carbamimidoylthiophen-2-yl)ethyl)-4-(difluoromethoxy)-1-((5,5-dioxidodibenzo[b,d]thiophene-3-carbonyl)glycyl) pyrrolidine-2-carboxamide] | < 100 |
| C[C@@H](NC(=O)[C@@H]1CC2(CN1C(=O)CN1Cc3cc(-c4ccc(F)cc4F)ccc3C1=O)OCCO2)c1cc(C(=N)N)cs1 [Compound 366] | < 100 |
| C[C@@H](NC(=O)[C@@H]1C[C@](F)(CF)CN1C(=O)CNC(=O)c1ccc2c(c1)C(C)(C)c1ccccc1-2)c1cc(C(=N)N)cs1 [Compound 368, (2S,4R)—N—((R)-1-(4-carbamimidoylthiophen-2-yl)ethyl)-1-((9,9-dimethyl-9H-fluorene-2-carbonyl)glycyl)-4-fluoro-4-(fluoromethyl)pyrrolidine-2-carboxamide] | < 100 |
| C[C@@H](NC(=O)[C@@H]1C[C@@H](S(C)(=O)=O)CN1C(=O)CNC(=O)c1ccc2c(c1)C(C)(C)c1ccccc1-2)c1cc(C(=N)N)cs1 [Compound 369, (2S,4R)—N—((R)-1-(4-carbamimidoylthiophen-2-yl)ethyl)-1-((9,9-dimethyl-9H-fluorene-2-carbonyl)glycyl)-4-(methylsulfonyl)pyrrolidine-2-carboxamide] | < 100 |
| C[C@@H](NC(=O)[C@@H]1C[C@H](c2ccncc2)CN1C(=O)CNC(=O)c1ccc2c(c1)-c1ccccc1C2(F)F)c1cc(C(=N)N)cs1 [Compound 370, (2S,4R)—N—((R)-1-(4-carbamimidoylthiophen-2-yl)ethyl)-1-((9,9-difluoro-9H-fluorene-3-carbonyl)glycyl)-4-(pyridin-4-yl)pyrrolidine-2-carboxamide] | < 100 |
| CC1c2ccccc2-c2ccc(C(=O)NCC(=O)N3C[C@@](F)(CF)C[C@H]3C(=O)N[C@H](C)c3cc(C(=N)N)cs3)cc21 (stereo partly drawn) [Compound 371, (2S,4R)—N—((R)-1-(4-carbamimidoylthiophen-2-yl)ethyl)-4-fluoro-4-(fluoromethyl)-1-((9-methyl-9H-fluorene-2-carbonyl)glycyl)pyrrolidine-2-carboxamide] | < 100 |
| COC[C@@]1(F)C[C@@H](C(=O)N[C@H](C)c2cc(C(=N)N)cs2)N(C(=O)CNC(=O)c2ccc3c(c2)Oc2ccccc2S3)C1 [Compound 373, (2S,4R)—N—((R)-1-(4-carbamimidoylthiophen-2-yl)ethyl)-4-fluoro-4-(methoxymethyl)-1-((phenoxathiine-3-carbonyl)glycyl)pyrrolidine-2-carboxamide] | < 100 |
| C[C@@H](NC(=O)[C@@H]1CC2(CN1C(=O)CNC(=O)c1ccc3c(c1)[nH]c1ccccc13)OCCO2)c1cc(C(=N)N)cs1 [Compound 374, (S)-7-((9H-carbazole-2-carbonyl)glycyl)-N—((R)-1-(4-carbamimidoylthiophen-2-yl)ethyl)-1,4-dioxa-7-azaspiro[4.4]nonane-8-carboxamide] | < 100 |
| C[C@@H](NC(=O)[C@@H]1C[C@](F)(CF)CN1C(=O)CNC(=O)c1ccc2c(c1)S(=O)(=O)c1ccccc1-2)c1cc(C(=N)N)cs1 [Compound 375, (2S,4R)—N—((R)-1-(4-carbamimidoylthiophen-2-yl)ethyl)-1-((5,5-dioxidodibenzo[b,d]thiophene-3-carbonyl)glycyl)-4-fluoro-4-(fluoromethyl)pyrrolidine-2-carboxamide] | < 100 |
| C[C@@H](NC(=O)[C@@H]1C[C@@H](c2ccncc2)CN1C(=O)CNC(=O)c1ccc2c(c1)-c1ccccc1C2(F)F)c1cc(C(=N)N)cs1 [Compound 377, (2S,4S)—N—((R)-1-(4-carbamimidoylthiophen-2-yl)ethyl)-1-((9,9-difluoro-9H-fluorene-3-carbonyl)glycyl)-4-(pyridin-4-yl)pyrrolidine-2-carboxamide] | < 100 |

Continued, values first:

| IC50 [nM] | SMILES |
| --- | --- |
| < 100 | COC[C@@]1(F)C[C@@H](C(=O)N[C@H](C)c2cc(C(=N)N)cs2)N(C(=O)CNC(=O)c2ccc3c(c2)C(C)c2ccccc2-3)C1 (stereo partly drawn) [Compound 363, (2S,4R)—N—((R)-1-(4-carbamimidoylthiophen-2-yl)ethyl)-4-fluoro-4-(methoxymethyl)-1-((9-methyl-9H-fluorene-2-carbonyl)glycyl)pyrrolidine-2-carboxamide] |
| < 100 | COC[C@@]1(F)C[C@@H](C(=O)N[C@H](C)c2cc(C(=N)N)cs2)N(C(=O)CNC(=O)c2cccc(-c3ccc(F)cc3)c2)C1 [Compound 364, (2S,4R)—N—((R)-1-(4-carbamimidoylthiophen-2-yl)ethyl)-4-fluoro-1-((4′-fluoro-[1,1′-biphenyl]-3-carbonyl)glycyl)-4-(methoxymethyl)pyrrolidine-2-carboxamide] |
| < 100 | C[C@@H](NC(=O)[C@@H]1CC2(CN1C(=O)CN1Cc3cc(-c4ccccc4)ccc3C1=O)OCCO2)c1cc(C(=N)N)cs1 [Compound 365, (S)—N—((R)-1-(4-carbamimidoylthiophen-2-yl)ethyl)-7-(2-(1-oxo-5-phenylisoindolin-2-yl)acetyl)-1,4-dioxa-7-azaspiro[4.4]nonane-8-carboxamide] |
| < 100 | C[C@@H](NC(=O)[C@@H]1C[C@]2(COCCN(C)C)C[C@@H]2N1C(=O)CNC(=O)c1ccc2c(c1)-c1ccccc1C2(F)F)c1cc(C(=N)N)cs1 [Compound 367, (1S,3S,5R)—N—((R)-1-(4-carbamimidoylthiophen-2-yl)ethyl)-2-((9,9-difluoro-9H-fluorene-3-carbonyl)glycyl)-5-((2-(dimethylamino)ethoxy)methyl)-2-azabicyclo[3.1.0]hexane-3-carboxamide] |
| < 100 | C[C@@H](NC(=O)[C@@H]1C[C@](F)(CF)CN1C(=O)CNC(=O)c1ccc2c(c1)oc1ccccc12)c1cc(C(=N)N)cs1 [Compound 372, (2S,4R)—N—((R)-1-(4-carbamimidoylthiophen-2-yl)ethyl)-1-((dibenzo[b,d]furan-3-carbonyl)glycyl)-4-fluoro-4-(fluoromethyl)pyrrolidine-2-carboxamide] |
| < 100 | N=C(N)c1csc([C@@H](CO)NC(=O)[C@@H]2CC3(CN2C(=O)CNC(=O)c2ccc4c(c2)-c2ccccc2C4(F)F)OCCO3)c1 [Compound 376, (S)—N—((R)-1-(4-carbamimidoylthiophen-2-yl)-2-hydroxyethyl)-7-((9,9-difluoro-9H-fluorene-3-carbonyl)glycyl)-1,4-dioxa-7-azaspiro [4.4]nonane-8-carboxamide] |
